Assay results from ChEMBL document CHEMBL3351435, “New pyrrole derivatives with potent tubulin polymerization inhibiting activity as anticancer agents including hedgehog-dependent cancer” (J Med Chem, 2014).
pIC50: −log10 of the molar value. The source made the active and inactive calls. The rule behind the calls is not given here.

What was measured:
Tubulin = assay: Inhibition of tubulin (unknown origin) polymerization incubated 15 mins prior to GTP addition by spectrophotometry; type: protein-complex assay, Homo sapiens
MCF7 [1] = assay: Cytotoxicity against human MCF7 cells after 96 hrs by Giemsa staining-based light microscopy; type: functional, cell-based; settings: MCF7, 96 h
Tubulin (Homo sapiens) = Tubulin (Homo sapiens) (UniProt P68371+Q9H4B7+P0DPH7+P68366+Q13509+Q71U36+P04350+Q3ZCM7+P07437+P68363+Q9BQE3+Q6PEY2+Q13885+Q9BVA1+Q9BUF5); assay: Displacement of [3H]colchicine from tubulin (unknown origin) at 5 uM after 10 mins; type: protein-complex assay
HeLa [2] = assay: Cytotoxicity against human HeLa cells assessed as growth inhibition after 48 hrs by MTT method; type: functional, cell-based
HT-29 = assay: Cytotoxicity against human HT-29 cells assessed as growth inhibition after 48 hrs by MTT method; type: functional, cell-based; settings: HT-29, 48 h
A549 = assay: Cytotoxicity against human A549 cells assessed as growth inhibition after 48 hrs by MTT method; type: functional, cell-based; settings: A549, 48 h
[3] = Cytotoxicity against human HCT116 cells assessed as growth inhibition after 48 hrs by MTT method; type: functional, cell-based; settings: HCT-116, 48 h
NCI/ADR-RES = assay: Cytotoxicity against human NCI/ADR-RES cells assessed as growth inhibition after 96 hrs by Giemsa staining-based light microscopy; type: functional, cell-based
[4] = Cytotoxicity against human MESSA cells assessed as growth inhibition after 72 hrs by CellTitre-Glo assay; type: functional, cell-based; settings: MES-SA
HeLa [5] = assay: Cell cycle arrest in human HeLa cells assessed as accumulation at G2/M phase at 100 nM by propidium iodide staining-based flow cytometry; type: functional
HeLa [6] = assay: Cell cycle arrest in human HeLa cells assessed as accumulation at G2/M phase at 20 nM by propidium iodide staining-based flow cytometry; type: functional
HeLa [7] = assay: Cell cycle arrest in human HeLa cells assessed as mitotic rounded-up phenotype at 100 nM by light microscopy; type: functional, cell-based
HeLa [8] = assay: Induction of apoptosis in human HeLa cells assessed as short, aberrantly shaped, tripolar or multipolar microtubule at 100 nM by immunofluorescence analysis; type: functional, cell-based
HeLa [9] = assay: Cell cycle arrest in human HeLa cells by propidium iodide staining-based flow cytometry; type: functional
MCF7 [10] = assay: Cell cycle arrest in human MCF7 cells at 100 nM by immunofluorescence microscopy; type: functional, cell-based
MCF7 [11] = assay: Cell cycle arrest in human MCF7 cells expressing exogenous caspase-3 at 100 nM by immunofluorescence microscopy; type: functional, cell-based
cells [12] = settings: Homo sapiens, OVCAR-8, 96 h
Description: Cytotoxicity against human OVCAR8 cells assessed as growth inhibition after 96 hrs by Giemsa staining-based light microscopy

K562 [13] = assay: Cytotoxicity against human K562 cells assessed as growth inhibition after 96 hrs by Giemsa staining-based light microscopy; type: functional, cell-based; settings: K562, 96 h
K562 [14] = assay: Cell cycle arrest in human K562 cells assessed as mitotic index at 4 uM (reference value: 3 +/- 1%)
RD [15] = assay: Cytotoxicity against human RD cells assessed as growth inhibition after 48 hrs by MTT method; type: functional, cell-based
[16] = Cell cycle arrest in human PC3 cells assessed as accumulation at G2/M phase at 500 nM after 24 hrs by propidium iodide staining-based flow cytometry; type: functional; settings: PC-3
RD [17] = assay: Cell cycle arrest in human RD cells assessed as accumulation at G2/M phase at 500 nM after 24 hrs by propidium iodide staining-based flow cytometry; type: functional
HepG2 [18] = assay: Cell cycle arrest in human HepG2 cells assessed as accumulation at G2/M phase at 500 nM after 24 hrs by propidium iodide staining-based flow cytometry; type: functional
[19] = Cell cycle arrest in human PC3 cells assessed as rounded cells at 500 nM after 24 hrs by propidium iodide staining-based flow cytometry; type: functional; settings: PC-3
RD [20] = assay: Cell cycle arrest in human RD cells assessed as rounded cells at 500 nM after 24 hrs by propidium iodide staining-based flow cytometry; type: functional
HepG2 [21] = assay: Cell cycle arrest in human HepG2 cells assessed as rounded cells at 500 nM after 24 hrs by propidium iodide staining-based flow cytometry; type: functional
[22] = Cell cycle arrest in human PC3 cells at 500 to 2000 nM incubated for 24 hrs followed by compound washout measured after 24 hrs; type: functional, cell-based; settings: PC-3
RD [23] = assay: Cell cycle arrest in human RD cells at 1000 to 2000 nM incubated for 24 hrs followed by compound washout measured after 24 hrs; type: functional, cell-based
RD [24] = assay: Cell cycle arrest in human RD cells at 500 nM incubated for 24 hrs followed by compound washout measured after 24 hrs; type: functional, cell-based
HepG2 [25] = assay: Cell cycle arrest in human HepG2 cells at 500 to 2000 nM incubated for 24 hrs followed by compound washout measured after 24 hrs; type: functional, cell-based
HepG2 [26] = assay: Induction of apoptosis in human HepG2 cells after 48 hrs by annexin-V/propidium iodide staining-based flow cytometry; type: functional, cell-based
[27] = Cytotoxicity against human MESSA/DX5 cells assessed as growth inhibition after 72 hrs by CellTitre-Glo assay; type: functional, cell-based; settings: MES-SA/Dx5, 72 h
[28] = Cytotoxicity against human PC3 cells assessed as growth inhibition after 48 hrs by MTT method; type: functional, cell-based; settings: PC-3, 48 h
HepG2 [29] = assay: Cytotoxicity against human HepG2 cells assessed as growth inhibition after 48 hrs by MTT method; type: functional, cell-based; settings: HepG2, 48 h
PC-3 = assay: Induction of apoptosis in human PC3 cells after 48 hrs by annexin-V/propidium iodide staining-based flow cytometry; type: functional, cell-based
RD [30] = assay: Induction of apoptosis in human RD cells at 500 to 2000 nM after 48 hrs by annexin-V/propidium iodide staining-based flow cytometry; type: functional, cell-based
HepG2 [31] = assay: Induction of apoptosis in human HepG2 cells at 500 to 2000 nM after 48 hrs by annexin-V/propidium iodide staining-based flow cytometry; type: functional, cell-based
K562 [32] = assay: Cell cycle arrest in human K562 cells assessed as mitotic index at 10 times IC50 (reference value: […] +/- […]%); type: functional
[33] = Inhibition of hedgehog signaling in mouse NIH/3T3 Shh-Light II cells after 48 hrs by luciferase reporter gene assay; type: functional, cell-based
[34] = Cytotoxicity against human D283 cells; type: functional, cell-based
HeLa [35] = assay: Induction of apoptosis in human HeLa cells assessed as short, aberrantly shaped, tripolar or multipolar microtubule microtubule at 20 nM by immunofluorescence analysis; type: functional, cell-based
HeLa [36] = assay: Induction of apoptosis in human HeLa cells assessed as unstructured tubulin foci at 100 nM by immunofluorescence analysis; type: functional, cell-based
HeLa [37] = assay: Induction of apoptosis in human HeLa cells assessed as failure of MT elongation at 100 nM by immunofluorescence analysis; type: functional, cell-based
HeLa [38] = assay: Induction of apoptosis in human HeLa cells assessed as failure of MT elongation at 20 nM by immunofluorescence analysis; type: functional, cell-based
K562 [39] = assay: Cell cycle arrest in human K562 cells assessed as mitotic index at 0.1 nM (reference value: 3 +/- 1%); type: functional
cells [40] = settings: Homo sapiens, HCT-15, 72 h
Description: Cytotoxicity against human HCT15 cells assessed as growth inhibition after 72 hrs by CellTitre-Glo assay

HeLa [41] = assay: Cell cycle arrest in human HeLa cells assessed as mitotic rounded-up phenotype at 20 nM by light microscopy; type: functional, cell-based

COc1cc(C(=O)c2ccn(-c3ccccc3)c2)cc(OC)c1OC
pIC50 (Tubulin): 5.82 | pIC50 (MCF7 [1]): 6.15 | inhibition (Tubulin (Homo sapiens)): 80% | pIC50 (HeLa [2]): 7.00 | pIC50 (HT-29): 7.05 | pIC50 (A549): 6.70 | pIC50 [3]: 7.11 | pIC50 (NCI/ADR-RES): 7.70 | pIC50 [4]: 7.25 | Activity (HeLa [5]): Active | Activity (HeLa [6]): Active | Activity (HeLa [7]): Active | Activity (HeLa [8]): Active | Activity (HeLa [9]): Dose-dependent effect | Activity (MCF7 [10]): inactive | Activity (MCF7 [11]): inactive | pIC50 (cells [12]): 7.35

COc1cc(C(=O)c2ccn(-c3cccc(NC(C)C)c3)c2)cc(OC)c1OC
pIC50 (Tubulin): 5.60 | pIC50 (MCF7 [1]): 7.70 | inhibition (Tubulin (Homo sapiens)): 53% | pIC50 (K562 [13]): 6.30 | Activity (K562 [14]): 69%

CC(=O)O[C@H]1C(=O)[C@@]2(C)[C@H]([C@H](OC(=O)c3ccccc3)[C@]3(O)C[C@H](OC(=O)[C@H](O)[C@@H](NC(=O)c4ccccc4)c4ccccc4)C(C)=C1C3(C)C)[C@]1(OC(C)=O)CO[C@@H]1C[C@@H]2O [PACLITAXEL]
pIC50 (RD [15]): 4.85 | Activity [16]: Active | Activity (RD [17]): Active | Activity (HepG2 [18]): Active | Activity [19]: Active | Activity (RD [20]): Active | Activity (HepG2 [21]): Active | Activity [22]: inactive | Activity (RD [23]): inactive | Activity (RD [24]): Active | Activity (HepG2 [25]): inactive | Activity (HepG2 [26]): Dose-dependent effect

COc1cc(C(=O)c2ccn(-c3cccc(N4CCCC4)c3)c2)cc(OC)c1OC
pIC50 (Tubulin): 5.60 | pIC50 (MCF7 [1]): 7.80 | inhibition (Tubulin (Homo sapiens)): 23% | pIC50 (K562 [13]): 6.02 | Activity (K562 [14]): 39%

COc1cc(C(=O)c2ccn(-c3cccc(NC(=N)N)c3)c2)cc(OC)c1OC.Cl
pIC50 (Tubulin): 5.92 | pIC50 (MCF7 [1]): 7.70 | inhibition (Tubulin (Homo sapiens)): 87% | pIC50 [4]: 7.85 | pIC50 [27]: 7.80 | pIC50 [28]: 8.41 | pIC50 (RD [15]): 6.10 | pIC50 (HepG2 [29]): 7.31 | Activity [16]: Active | Activity (RD [17]): Active | Activity (HepG2 [18]): Active | Activity [19]: Active | Activity (RD [20]): Active | Activity (HepG2 [21]): Active | Activity (RD [24]): Active | Activity (HepG2 [25]): inactive | Activity (PC-3): Dose-dependent effect | Activity (RD [30]): Active | Activity (HepG2 [31]): Active | pIC50 (K562 [13]): 7.60 | Activity (K562 [32]): 71% | inhibition [33]: Dose-dependent effect | pIC50 [34]: 6.17

COc1ccc(/C=C\c2cc(OC)c(OC)c(OC)c2)cc1O [COMBRETASTATIN A4]
Activity (HeLa [6]): Active | Activity (HeLa [35]): Active | Activity (HeLa [36]): Active | Activity (HeLa [37]): Active | Activity (HeLa [38]): Active | Activity (K562 [39]): 65% | pIC50 (cells [40]): 7.41

CC[C@]1(O)C[C@@H]2CN(CCc3c([nH]c4ccccc34)[C@@](C(=O)OC)(c3cc4c(cc3OC)N(C)[C@H]3[C@@](O)(C(=O)OC)[C@H](OC(C)=O)[C@]5(CC)C=CCN6CC[C@]43[C@@H]65)C2)C1 [VINBLASTINE]
pIC50 [4]: 8.52 | pIC50 [27]: 6.84 | Activity (HeLa [6]): Active | Activity (HeLa [41]): Active | pIC50 (RD [15]): 7.28 | pIC50 (HepG2 [29]): 7.09 | Activity [16]: Active | Activity (RD [17]): Active | Activity [19]: Active | Activity (RD [20]): Active | Activity [22]: inactive | Activity (RD [23]): inactive | Activity (RD [24]): Active | Activity (HepG2 [25]): inactive | pIC50 (cells [12]): 7.82
